Values after ≈ are worked out from the molar mass of the structure shown. Where two headings read alike, the source gives them in different places.
Legend:
Assay in all cases: Antibacterial activity (minimum inhibitory concentration), tube dilution method
Format in all cases: cell-based
[1] = system: Bacillus subtilis NRRL B558; details: for MIC: Bacillus subtilis
Description: (§1) The antibacterial activities of some typical compounds of this invention were measured by a tube dilution method in a brain heart infusion broth (pH 7.5) as a culture medium.

[2] = system: Klebsiella pneumoniae PCI602
Description: as §1

[3] = system: Staphylococcus aureus 209P
Description: as §1

[4] = system: Staphylococcus aureus MS9861; details: for MIC: Staphylococcus aureus
Description: as §1

[5] = NRRLB558, tube dilution method, brain heart infusion broth (pH 7.5), read-out: minimum inhibitory concentration, Bacillus subtilis NRRL B558
[6] = PCI602, tube dilution method, brain heart infusion broth (pH 7.5), read-out: minimum inhibitory concentration, Klebsiella pneumoniae PCI602
[7] = tube dilution method, brain heart infusion broth (pH 7.5), read-out: minimum inhibitory concentration, Staphylococcus aureus 209P
[8] = MS9861, tube dilution method, brain heart infusion broth (pH 7.5), read-out: minimum inhibitory concentration, Staphylococcus aureus MS9861
[9] = tube dilution method, brain heart infusion broth (pH 7.5)

| SMILES | MIC [1, 5] [µg/mL] | MIC [2, 6] [µg/mL] | MIC [3, 7] [µg/mL] | MIC [4, 8] [µg/mL] | MIC ([1]; NRRLB558, pH 7.5, read-out: minimum inhibitory concentration, Bacillus subtilis NRRL B558, tube dilution method, brain heart infusion broth (pH 7.5)) [µg/mL] | minimum inhibitory concentration, Bacillus subtilis NRRL B558 [1, 9] [µg/mL] | MIC ([2]; PCI602, pH 7.5, read-out: minimum inhibitory concentration, Klebsiella pneumoniae PCI602) [µg/mL] | MIC ([3]; pH 7.5, read-out: minimum inhibitory concentration, Staphylococcus aureus 209P) [µg/mL] | MIC ([4]; MS9861, pH 7.5, read-out: minimum inhibitory concentration, Staphylococcus aureus MS9861, tube dilution method, brain heart infusion broth (pH 7.5)) [µg/mL] | minimum inhibitory concentration, Staphylococcus aureus MS9861 [4, 9] [µg/mL] |
| --- | --- | --- | --- | --- | --- | --- | --- | --- | --- | --- |
| CCC1OC(=O)CC(O)C(C)C(OC2OC(C)C(OC3CC(C)(OC(C)=O)C(OC(=O)CC(C)C)C(C)O3)C(N(C)C)C2O)C(CC=O)CC(C)C(=O)C=CC(C)=CC1CO (centres unmarked) [(R2)=COCH3, R3=drawing 66, AR4=OH, 3"-O-acetyl-4"-O-isovaleryl-YO-9010] | 0.4 (≈ 0.461 µM) | > 100 | 0.8 (≈ 0.922 µM) | 3.1 (≈ 3.57 µM) | – | – | – | – | – | – |
| CCC1OC(=O)CC(O)C(C)C(OC2OC(C)C(OC3CC(C)(OC(C)=O)C(OC(=O)CC(C)C)C(C)O3)C(N(C)C)C2O)C(CC=O)CC(C)C(=O)C=CC(C)=CC1COC(C)=O (centres unmarked) [(R2)=COCH3, R3=drawing 75, AR4=OCOCH3] | 1.6 (≈ 1.76 µM) | 25 (≈ 27.5 µM) | 1.6 (≈ 1.76 µM) | 6.3 (≈ 6.92 µM) | – | – | – | – | – | – |
| CCC1OC(=O)CC(O)C(C)C(OC2OC(C)C(OC3CC(C)(O)C(O)C(C)O3)C(N(C)C)C2O)C(CC=O)CC(C)C(=O)C=CC(C)=CC1CO (centres unmarked) [Antibiotic YO9010, 23-demycinosyltylosin, reference compound] | 1.6 (≈ 2.16 µM) | 12.5 (≈ 16.8 µM) | 0.8 (≈ 1.08 µM) | 3.1 (≈ 4.18 µM) | – | – | – | – | – | – |
| CCC1OC(=O)CC(OC(C)=O)C(C)C(OC2OC(C)C(OC3CC(C)(O)C(OC(=O)CC(C)C)C(C)O3)C(N(C)C)C2O)C(CC=O)CC(C)C(=O)C=CC(C)=CC1CO (centres unmarked) [N-1 substance, 3-O-acetyl-4"-O-isovaleryl-YO-9010, reference compound] | 0.8 (≈ 0.922 µM) | 3.1 (≈ 3.57 µM) | 0.4 (≈ 0.461 µM) | 1.6 (≈ 1.84 µM) | – | – | – | – | – | – |
| CCC1OC(=O)CC(OC(C)=O)C(C)C(OC2OC(C)C(OC3CC(C)(O)C(OC(=O)CC(C)C)C(C)O3)C(N(C)C)C2O)C(CC=O)CC(C)C(=O)C=CC(C)=CC1CBr (centres unmarked) [R1=COCH3, R3=drawing 68, AR4=Br, 3-O-Acetyl-23-deoxy-23-bromo-4"-O-isovaleryl-YO-9010] | 1.6 (≈ 1.72 µM) | > 100 | 1.6 (≈ 1.72 µM) | 3.1 (≈ 3.33 µM) | – | – | – | – | – | – |
| CCC1OC(=O)CC(O)C(C)C(OC2OC(C)C(OC3CC(C)(O)C(OC(C)=O)C(C)O3)C(N(C)C)C2O)C(CC=O)CC(C)C(=O)C=CC(C)=CC1CO (centres unmarked) [R1=H, R3=COCH3, AR4=OH] | 1.6 (≈ 2.04 µM) | 3.1 (≈ 3.95 µM) | 1.6 (≈ 2.04 µM) | 25 (≈ 31.9 µM) | – | – | – | – | – | – |
| CCC1OC(=O)CC(O)C(C)C(OC2OC(C)C(OC3CC(C)(O)C(O)C(C)O3)C(N(C)C)C2O)C(CC=O)CC(C)C(=O)C=CC(C)=CC1CBr (centres unmarked) [R1=H, R3=H, AR4=Br, 23-Deoxy-23-bromo-YO-9010] | < 0.2 | 6.3 (≈ 7.83 µM) | < 0.2 | 0.8 (≈ 0.994 µM) | – | – | – | – | – | – |
| CCC1OC(=O)CC(O)C(C)C(OC2OC(C)C(OC3CC(C)(O)C(O)C(C)O3)C(N(C)C)C2O)C(CC=O)CC(C)C(=O)C=CC(C)=CC1CI (centres unmarked) [R1=H, R3=H, AR4=I, 23-Deoxy-23-iodo-YO-9010] | < 0.2 | 6.3 (≈ 7.4 µM) | 0.4 (≈ 0.47 µM) | 3.1 (≈ 3.64 µM) | – | – | – | – | – | – |
| CCC1OC(=O)CC(O)C(C)C(OC2OC(C)C(OC3CC(C)(O)C(O)C(C)O3)C(N(C)C)C2O)C(CC=O)CC(C)C(=O)C=CC(C)=CC1COC(C)=O (centres unmarked) [R1=H, R3=H, AR4=OCOCH3] | 0.4 (≈ 0.51 µM) | 25 (≈ 31.9 µM) | 0.4 (≈ 0.51 µM) | 1.6 (≈ 2.04 µM) | – | – | – | – | – | – |
| CCC1OC(=O)CC(O)C(C)C(OC2OC(C)C(OC3CC(C)(O)C(O)C(C)O3)C(N(C)C)C2O)C(CC=O)CC(C)C(=O)C=CC(C)=CC1CSC (centres unmarked) [R1=H, R3=H, AR4=SCH3, 23-Deoxy-23-methylthio-YO-9010] | 0.8 (≈ 1.04 µM) | 6.3 (≈ 8.16 µM) | 0.8 (≈ 1.04 µM) | 1.6 (≈ 2.07 µM) | – | – | – | – | – | – |
| CCC1OC(=O)CC(O)C(C)C(OC2OC(C)C(OC3CC(C)(O)C(O)C(C)O3)C(N(C)C)C2O)C(CC=O)CC(C)C(=O)C=CC(C)=CC1COC(=O)Cc1ccccc1 (centres unmarked) [R1=H, R3=H, AR4=drawing 71] | – | – | – | – | < 0.2 | 0.4 (≈ 0.465 µM) | 6.3 (≈ 7.33 µM) | 0.4 (≈ 0.465 µM) | 1.6 (≈ 1.86 µM) | 3.1 (≈ 3.6 µM) |
| CCC1OC(=O)CC(O)C(C)C(OC2OC(C)C(OC3CC(C)(O)C(O)C(C)O3)C(N(C)C)C2O)C(CC=O)CC(C)C(=O)C=CC(C)=CC1COC(=O)CSc1ccncc1 (centres unmarked) [R1=H, R3=H, AR4=drawing 72] | < 0.2 | 12.5 (≈ 14 µM) | 0.8 (≈ 0.896 µM) | 3.1 (≈ 3.47 µM) | – | – | – | – | – | – |
| CCC1OC(=O)CC(O)C(C)C(OC2OC(C)C(OC3CC(C)(O)C(O)C(C)O3)C(N(C)C)C2O)C(CC=O)CC(C)C(=O)C=CC(C)=CC1COC(=O)C(O)c1ccccc1 (centres unmarked) [R1=H, R3=H, AR4=drawing 73] | < 0.2 | 12.5 (≈ 14.3 µM) | 0.4 (≈ 0.457 µM) | 1.6 (≈ 1.83 µM) | – | – | – | – | – | – |
| CCC1OC(=O)CC(O)C(C)C(OC2OC(C)C(OC3CC(C)(O)C(O)C(C)O3)C(N(C)C)C2O)C(CC=O)CC(C)C(=O)C=CC(C)=CC1COC(=O)C(NSc1ccccc1[N+](=O)[O-])c1ccccc1 (centres unmarked) [R1=H, R3=H, AR4=drawing 74] | 0.8 (≈ 0.778 µM) | 3.1 (≈ 3.01 µM) | 0.8 (≈ 0.778 µM) | 3.1 (≈ 3.01 µM) | – | – | – | – | – | – |
| CCC1OC(=O)CC(O)C(C)C(OC2OC(C)C(OC3CC(C)(O)C(O)C(C)O3)C(N(C)C)C2O)C(CC=O)CC(C)C(=O)C=CC(C)=CC1COS(=O)(=O)c1ccc(C)cc1 (centres unmarked) [R1=H, R3=H, AR4=drawing 79] | 0.4 (≈ 0.446 µM) | 25 (≈ 27.9 µM) | 0.8 (≈ 0.893 µM) | 6.3 (≈ 7.03 µM) | – | – | – | – | – | – |
| CCC1OC(=O)CC(O)C(C)C(OC2OC(C)C(OC3CC(C)(O)C(O)C(C)O3)C(N(C)C)C2O)C(CC=O)CC(C)C(=O)C=CC(C)=CC1CSc1ccccc1 (centres unmarked) [R1=H, R3=H, AR4=drawing 80] | < 0.2 | 25 (≈ 30 µM) | < 0.2 | 1.6 (≈ 1.92 µM) | – | – | – | – | – | – |
| CCC1OC(=O)CC(O)C(C)C(OC2OC(C)C(OC3CC(C)(O)C(O)C(C)O3)C(N(C)C)C2O)C(CC=O)CC(C)C(=O)C=CC(C)=CC1CSc1nnnn1C (centres unmarked) [R1=H, R3=H, AR4=drawing 81] | < 0.2 | 12.5 (≈ 14.9 µM) | 0.8 (≈ 0.952 µM) | 3.1 (≈ 3.69 µM) | – | – | – | – | – | – |
| CCC1OC(=O)CC(O)C(C)C(OC2OC(C)C(OC3CC(C)(O)C(O)C(C)O3)C(N(C)C)C2O)C(CC=O)CC(C)C(=O)C=CC(C)=CC1COC1CCCCO1 (centres unmarked) [R1=H, R3=H, AR4=drawing 84] | 0.8 (≈ 0.968 µM) | 12.5 (≈ 15.1 µM) | 0.8 (≈ 0.968 µM) | 3.1 (≈ 3.75 µM) | – | – | – | – | – | – |
| CCC1OC(=O)CC(O)C(C)C(OC2OC(C)C(OC3CC(C)(O)C(OC(=O)CC(C)C)C(C)O3)C(N(C)C)C2O)C(CC=O)CC(C)C(=O)C=CC(C)=CC1CO (centres unmarked) [R1=H, R3=drawing 66, AR4=OH, 4"-O-isovaleryl-YO-9010] | 0.8 (≈ 0.968 µM) | 1.6 (≈ 1.94 µM) | 0.4 (≈ 0.484 µM) | 1.6 (≈ 1.94 µM) | – | – | – | – | – | – |
| CCC1OC(=O)CC(O)C(C)C(OC2OC(C)C(OC3CC(C)(O)C(OC(=O)CSc4ccccc4)C(C)O3)C(N(C)C)C2O)C(CC=O)CC(C)C(=O)C=CC(C)=CC1CO (centres unmarked) [R1=H, R3=drawing 67, AR4=OH] | < 0.2 | 3.1 (≈ 3.47 µM) | 0.4 (≈ 0.448 µM) | 3.1 (≈ 3.47 µM) | – | – | – | – | – | – |
| CCC1OC(=O)CC(O)C(C)C(OC2OC(C)C(OC3CC(C)(O)C(OC(=O)CC(C)C)C(C)O3)C(N(C)C)C2O)C(CC=O)CC(C)C(=O)C=CC(C)=CC1CBr (centres unmarked) [R1=H, R3=drawing 68, AR4=Br, 23-Deoxy-23-bromo-4"-O-isovaleryl-YO-9010] | 0.4 (≈ 0.45 µM) | 6.3 (≈ 7.09 µM) | 0.8 (≈ 0.9 µM) | 1.6 (≈ 1.8 µM) | – | – | – | – | – | – |
| CCC1OC(=O)CC(O)C(C)C(OC2OC(C)C(OC3CC(C)(O)C(OC(=O)CSc4ccccc4)C(C)O3)C(N(C)C)C2O)C(CC=O)CC(C)C(=O)C=CC(C)=CC1CBr (centres unmarked) [R1=H, R3=drawing 69, AR4=Br] | 1.6 (≈ 1.68 µM) | > 100 | 0.4 (≈ 0.419 µM) | 3.1 (≈ 3.25 µM) | – | – | – | – | – | – |
| CCC1OC(=O)CC(O)C(C)C(OC2OC(C)C(OC3CC(C)(O)C(OC(=O)CSc4ccncc4)C(C)O3)C(N(C)C)C2O)C(CC=O)CC(C)C(=O)C=CC(C)=CC1CBr (centres unmarked) [R1=H, R3=drawing 70, AR4=Br] | < 0.2 | 12.5 (≈ 13.1 µM) | 0.2 (≈ 0.209 µM) | 0.8 (≈ 0.837 µM) | – | – | – | – | – | – |
| CCC1OC(=O)CC(O)C(C)C(OC2OC(C)C(OC3CC(C)(O)C(OC(=O)CC(C)C)C(C)O3)C(N(C)C)C2O)C(CC=O)CC(C)C(=O)C=CC(C)=CC1COC(C)=O (centres unmarked) [R1=H, R3=drawing 75, AR4=OCOCH3, 23-O-Acetyl-4"-O-isovaleryl-YO-9010] | 1.6 (≈ 1.84 µM) | 3.1 (≈ 3.57 µM) | 0.8 (≈ 0.922 µM) | 6.3 (≈ 7.26 µM) | – | – | – | – | – | – |
